Like-named read-outs stand apart in the source and are kept apart here. Values belong to the molecule of their own block, whether it stands above or below them.
Legend:
[1] = solubility; conditions: 0.1 M phosphate buffer, pH 7.5
[2] = system: melanotic melanoma B16; experiment: Melanotic Melanoma B16 test; assay type: in vivo, BDF1 mice
[3] = system: lymphocytic leukemia P388; experiment: Lymphocytic leukemia P388 test; assay type: in vivo, BDF1 mice
[4] = system: L1210 leukemia cells; experiment: Lymphocytic Leukemia L1210 test; assay type: in vivo, BDF1 mice
[5] = pH 7.5
[6] = Dose 12.5 mg/kg intraperitoneally on days 1, 5 and 9
[7] = Dose 25 mg/kg intraperitoneally on days 1, 5 and 9
[8] = Dose 50 mg/kg intraperitoneally on days 1, 5 and 9
[9] = Dose 100 mg/kg intraperitoneally on days 1, 5 and 9
[10] = Dose 200 mg/kg intraperitoneally on days 1, 5 and 9
[11] = Dose 0.78 mg/kg intraperitoneally on days 1, 5 and 9
[12] = Dose 1.56 mg/kg intraperitoneally on days 1, 5 and 9
[13] = Dose 3.12 mg/kg intraperitoneally on days 1, 5 and 9
[14] = Dose 6.25 mg/kg intraperitoneally on days 1, 5 and 9
[15] = Dose 3.25 mg/kg intraperitoneally on days 1, 5 and 9
[16] = Dose 0.39 mg/kg intraperitoneally on days 1, 5 and 9
[17] = Dose 0.19 mg/kg intraperitoneally on days 1, 5 and 9

solubility [1]: soluble
SMILES: O=C(O)c1cn(C2CC2)c2cc(N3CCN(P(=O)(O)O)CC3)c(F)cc2c1=O [Example 47, t-Cyclopropyl-6-fluoro-1,4-dihydro-4-oxo-7-(4-phosphono-1-piperazinyl)-3-quinolinecarboxylic Acid]

SMILES: O=C(c1ccccc1)N1CCN=C1N(N=Cc1c2ccccc2c(C=NN(C(=O)c2ccccc2)C2=NCCN2C(=O)c2ccccc2)c2ccccc12)C(=O)c1ccccc1 [2,2-(9,14-Anthracenediyldimethylidyne)bis[1-(1-benzoyl-4,5-dihydro-1H-imidazol-2-yl)hydrazide] of Benzoic Acid]
Median Survival [2, 6]: 29.5 days
T/C x 100 % [2, 6]: 134%
Median Survival [2, 7]: 32 days
T/C x 100 % [2, 7]: 145%
Median Survival [2, 8]: 40 days
T/C x 100 % [2, 8]: 182%
Median Survival [2, 9]: 57.5 days
T/C x 100 % [2, 9]: 261%
Median Survival [2, 10]: 50 days
T/C x 100 % [2, 10]: 227%
Median Survival [3, 11]: 15.5 days
T/C x 100 % [3, 11]: 155%
Median Survival [3, 12]: 17.5 days
T/C x 100 % [3, 12]: 175%
Median Survival [3, 13]: 17 days
T/C x 100 % [3, 13]: 170%
Median Survival [3, 14]: 18 days
T/C x 100 % [3, 14]: 180%
Median Survival [3, 6]: 19 days
T/C x 100 % [3, 6]: 190%
Median Survival [3, 7]: 19.5 days
T/C x 100 % [3, 7]: 195%
Median Survival [3, 8]: 20 days
T/C x 100 % [3, 8]: 200%
Median Survival [3, 9]: 23 days
T/C x 100 % [3, 9]: 320%
Median Survival [3, 10]: 32 days
T/C x 100 % [3, 10]: 320%

SMILES: O=C(O)CCC(=O)N1CCN=C1NN=Cc1c2ccccc2c(C=NNC2=NCCN2C(=O)CCC(=O)O)c2ccccc12 [2,2[9,10-Anthracenediylbis(methylidene-1-hydrazinyl-2-ylidene)]bis[4,5-dihydro-gamma-oxo-1H-imidazole-1-butanoic Acid]]
Median Survival [2, 15]: >60 days
T/C x 100 % [2, 15]: >273%
Median Survival [2, 14]: >60 days
T/C x 100 % [2, 14]: >273%
Median Survival [2, 6]: 55.5 days
T/C x 100 % [2, 6]: 252%
Median Survival [4, 16]: 11.5 days
T/C x 100 % [4, 16]: 135%
Median Survival [4, 11]: 11.2 days
T/C x 100 % [4, 11]: 132%
Median Survival [4, 12]: 12 days
T/C x 100 % [4, 12]: 141%
Median Survival [4, 13]: 12.3 days
T/C x 100 % [4, 13]: 145%
Median Survival [4, 14]: 12.2 days
T/C x 100 % [4, 14]: 144%
Median Survival [4, 6]: 13.2 days
T/C x 100 % [4, 6]: 155%
Median Survival [3, 17]: 15 days
T/C x 100 % [3, 17]: 150%
Median Survival [3, 16]: 15.5 days
T/C x 100 % [3, 16]: 155%
Median Survival [3, 11]: 17 days
T/C x 100 % [3, 11]: 170%
Median Survival [3, 12]: 17 days
T/C x 100 % [3, 12]: 170%
Median Survival [3, 13]: 19 days
T/C x 100 % [3, 13]: 190%
Median Survival [3, 14]: 19 days
T/C x 100 % [3, 14]: 190%
Median Survival [3, 6]: 23 days
T/C x 100 % [3, 6]: 230%

SMILES: CCOP(=O)(OCC)N1CCN(c2cc3c(cc2F)c(=O)c(C(=O)OCCOC)cn3C2CC2)CC1 [Example 49, 1-Cycfopropyl-7-[4-(diethoxyphosphinyl)-1-piperazinyl]-6-fluoro-1,4-dihydro-4-oxo-3-quinolinecarboxylic Acid, 2-Methoxyethyl Ester]
solubility [5]: easily soluble

— patent EP0338372A2, “Solubilized pro-drugs” (AMERICAN CYANAMID COMPANY, priority 1988, dated 1989)
